In assay [1] the test system is murine macrophages RAW264.7. Nature of the assay: Inhibition of PGE2 (ELISA) production in LPS-stimulated macrophages. It counts as cell-based. The note with it: combination = actually determined inhibition. The procedure:
(§1) In order to induce an in vitro ‘inflammatory response’, murine macrophages RAW264.7 were seeded into microtiter plates or 12-well plates and stimulated with lipopolysaccharide (LPS) without or with graded amounts of the test substances. Vehicle concentrations (i.e. DMSO) were kept constant. Culture supernatants were harvested after appropriate periods of time (4 to 24 hours). Prostaglandin E2 (PGE2) and nitrite produced from nitric oxide (NO) secreted into the culture medium were quantified by ELISA and the Griess reaction, respectively. The percentage of inhibition of PGE2 or NO production at a given concentration of the test substances (compared to maximal production by LPS-stimulated cells) was calculated.
Background: ELISA stands for enzyme-linked immunosorbent assay.

In assay [2] the test system is murine macrophages RAW264.7. Nature of the assay: Inhibition of NO (nitrite, Griess reaction) production in LPS-stimulated macrophages. It counts as cell-based. The procedure: as §1
For orientation: Nitrite, measured by Griess reagent, commonly stands in for NO production.

On to (−)-Epigallocatechin gallate [EGCG], for which the “% inhibition PGE2” value in assay [1] (Table 1, each substance at 10 μM) is 1.8%. In addition, the “% inhibition NO” value in assay [2] (Table 1, LPS-stimulated macrophages, each substance at 10 μM, combination = actually determined inhibition) was 4.4%.
As a reminder, the inhibition is the change of the read-out against control, counted positive when it falls. Consider `CCC=CCC=CCC=CCC=CCC=CCCCC(=O)O` [EPA, 5,8,11,14,17-eicosapentaenoic acid], for which, in assay [2] (Mus musculus, RAW264.7, Table 2, LPS stimulated macrophages, EPA 12.5 μM), the inhibition at 12.5 µM turned out to be 12.9%.
With `Oc1ccc(C=Cc2cc(O)cc(O)c2)cc1` [Resveratrol, resveratrol], the inhibition at 10 µM worked out at 26.8% in assay [1] (Mus musculus, RAW264.7, Table 1, each substance at 10 μM) and 8.3% in assay [2] (Mus musculus, RAW264.7, Table 1, LPS-stimulated macrophages, each substance at 10 μM, combination = actually determined inhibition). In assay [2] (Mus musculus, RAW264.7, Table 2, LPS stimulated macrophages, Resveratrol 2 μM), the inhibition at 2 µM was found to be 10%.

(Values after US7582674B2, “Nutraceutical compositions and use thereof” (DSM IP Assets B.V., priority 2003, dated 2009).)
